According to patent US9296691B2, “Inhibitors of p75 receptor and their uses” (Horacio Uri Saragovi, priority 2010, dated 2016):

Columns and labels:
nnr5 cells = test: Pro-NTF killing assay (MTT), nnr5 cells; assay type: cell-based; details: pro-NTF 50 nM + I-B 20 μM, 72 hours
Method: The effect of I-B on the pro-apoptotic function of pro-NGF or pro-BDNF was tested in functional MTT assays measuring cell metabolism (FIG. 1B).
Cells (5,000 cells/well) were cultured in 96-well plates (Falcon, Lincoln Park, N.J.) in normal culture media (RPMI1640, Hepes, Glutamine, 5% serum). Wells were supplemented with NGF, BDNF, pro-NGF, or pro-BDNF (Alomone Labs) (50 nM final), in the presence or absence of I-B (20 μM final). Wells containing all culture conditions but no cells were used as blanks. The growth/survival profile of the cells was quantified using MTT (Sigma) 72 hours after plating. Optical density readings of MTT were done in a Benchmark Plus microplate Spectrophotometer (BioRad) at 595 nm with blanks subtracted.

TNF-α = test: Glaucoma model, retinal TNF-α by western blot; assay type: in vivo, rat; details: intravitreal injection at glaucoma day 14, measured 3 and 5 days later
Method: After 14-days of glaucoma eyes were injected intravitreally with p75NTR antagonists, and the levels of TNF-α and α2M were measured three days later (e.g. day 17 of glaucoma) and five days later (e.g. day 19 of glaucoma) (FIG. 3A).
Both retinas of each animal were detergent solubilized, and studied in independent gels standardized to loading control. The ratio of the glaucoma eye ±treatment versus the normal contralateral eye was calculated, and results were averaged ±sem, n=3 animals per group. In glaucoma, all drug treatments were done at day 14 of hypertension. In one group the retinas were harvested at day 17 of glaucoma (3 days after intraocular injection) and in the other group the retinas were harvested at day 19 of glaucoma (5 days after intraocular injection). Normal eyes treated with NGF-A were collected in the indicated days. After SDS-PAGE and western transfer, membranes were immunoblotted with rabbit polyclonal antibodies against TNF-α (Preprotech) or α2M (Santa Cruz) at a 1:3000 dilution. Goat anti-rabbit secondary antibodies conjugated to horseradish peroxidase (Sigma) were used at a 1:10,000 dilution. Loading was controlled with antibodies to β-actin (Sigma). For digital quantification, membranes were scanned and analyzed using ImageJ software.

p75-Fc = target: T1, p75-Fc (Homo sapiens, UniProt P08138); test: Competitive ELISA, p75-Fc binding to immobilized NGF
T1 construct: purchased R&D
T1 sequence (P08138 29-250 limits assumed): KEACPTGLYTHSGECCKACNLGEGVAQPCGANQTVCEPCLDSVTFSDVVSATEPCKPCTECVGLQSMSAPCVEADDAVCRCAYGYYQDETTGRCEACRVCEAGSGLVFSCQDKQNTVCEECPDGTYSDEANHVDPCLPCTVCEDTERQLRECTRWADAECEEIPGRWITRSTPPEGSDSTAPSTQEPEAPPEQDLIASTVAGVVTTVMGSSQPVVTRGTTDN
Method: The effect of compounds I-B and LM-24 on the binding between NGF and p75 was tested in competitive ELISA assays, where the antagonists prevent soluble p75 from binding to immobilized NGF. The selectivity of antagonism was evaluated by lack of effect upon NGF-TrkA or lack of effect between NGF and anti-NGF monoclonal antibody (mAb) NGF30 interactions (FIG. 1A).
The compound LM-24 has been reported by others (Massa et al., 2006). Binding studies were carried out with all the compounds using I-B as reference.
Competitive ELISAs were performed as described (Saragovi et al., 1998). The procedure immobilized 50 ng/well NGF, or pro-NGF (Alomone Labs, Israel) onto polystyrene 96-well microtest plates, with washing and blocking with binding buffer (BB; phosphate buffered saline containing 0.5% bovine serum albumin). The following primary reagents in BB were added: recombinant chimeric p75-Fc or recombinant chimeric TrkA-Fc (R&D), or anti-NGF mAb NGF30 (Saragovi et al., 1998); each at 50 nM. The competitors I-B and the other test compounds (or control LM-24) were added at the indicated concentrations, and the plates were incubated for 45 minutes. After washing 3× in BB, HRP-conjugated secondary reagents (Sigma) were added for 30 min (goat anti-human Fc for p75-Fc and for TrkA-Fc; and goat anti-rat Ab for NGF30 mAb), and then wells were washed 3× in BB and 1× in PBS. Peroxidase activity was determined colorimetrically using the substrate TMB One Solution (Promega). The reaction was stopped with 0.5 N H2SO4 and the plates were read at 450 nm (Benchmark Plus, Bio-Rad). Assays were repeated n>4 times, with replicates of 4 wells each assay. […] Wells with no NGF immobilized but with all other reagents added were treated as background (<15% of maximal signals) and standardized to 0% binding.

Structure (SMILES): CC(C)NC(=O)N(C(=O)Cn1cnc2c1c(=O)n(C)c(=O)n2C)C(C)C [I-B, 1,3-Diisopropyl-1-[2-(1,3-dimethyl-2,6-dioxo-1,2,3,6-tetrahydro-purin-7-yl)-acetyl]-urea]
- cell viability (MTT) in presence of pro-NGF or pro-BDNF (nnr5 cells): prevented the loss of cell viability
- TNF-α level in glaucomatous retina, fold-change versus normal retina (TNF-α): time-dependent inhibition
- remaining activity at 30 µM (p75-Fc; 0.75 h, binding to immobilized NGF, no cpd = 100%, p75-Fc 50 nM, as described for FIG. 1A (compounds 30 μM), below 100% indicates inhibition): 52%
- effect on NGF-p75NTR interaction (p75-Fc; competitive ELISA, FIG. 1A, compound at 30 μM): antagonized NGF-p75NTR interactions selectively
